# Assay results taken from patent US12226433B2, “Treatment of irritable bowel syndrome with molybdenum” (The Johns Hopkins University, priority 2018, dated 2025).
# Assays:
# [1] = system: IBS mouse model; assay: Visceral motor reflex (VMR) response to colorectal distention (CRD), pain sensitivity in IBS mouse model; type: in vivo; conditions: 0.2 ml sodium molybdate (10 mg/ml) cecal infusion for 7 days; for pain sensitivity (hyperalgesia) assessed by VMR response to CRD: IBS mice, CRD 15, 30, 50 and 70 mmHg, vs IBS-vehicle, P<0.05
# Procedure: (§1) IBS mice were generated by colorectal infusion of 0.5% acetic acid (20 μl) at postnatal day 10. The mice were then allowed to grow up until adult. The adult IBS and control mice were undergone a surgery to insert a catheter into the cecum. The catheter made from PE10 tubing with 8 cm long. It was insert into cecum about 0.5 cm and then tunneled to the back of the mouse after sutured on the cecum wall ensuring no cecum content leaking. Then, a pair of electrodes were inserted into the external oblique (abdominal) muscle for pain sensitivity test. The mice received 0.2 ml sodium molybdate (10 mg/ml) through cecal infusion starting on the day after surgery for 7 days. One day after the last infusion, a visceral motor reflex (VMR) response to colorectal distention (CRD) was conducted to assess the pain sensitivity. A balloon was inserted into colorectum through the anus for CRD. The VMR is measured using an electromyographic (EMG) recording that response to CRD with 15, 30, 50 and 70 mmHg. To assess the microbiota, stool were collected before and after the molybdate treatment. Microbiome were examined by 16S rRNA sequencing.
# [2] = system: Desulfovibrio; assay: Stool microbiome examined by 16S rRNA sequencing before and after molybdate treatment; type: in vivo, mouse; conditions: molybdate treated control and IBS groups; stool before and after 7 days of cecal infusion; not reduced in saline treated groups
# Procedure: as §1
smiles,measurement,setting,value
[Na+].[Na+].[O]=[Mo](=[O])([O-])[O-] [sodium molybdate],pain sensitivity (hyperalgesia) assessed by VMR response to CRD,[1],reduced hyperalgesia
same,pain sensitivity (hyperalgesia) assessed by VMR response to CRD,[1]; listed as molybdate,significantly reduced
same,pain sensitivity assessed by VMR response to CRD,"[1]; control mice, molybdate vs saline treated",no significant different
same,sulfate-reducing bacteria Desulfovibrio in stool (16S rRNA sequencing),[2],reduced
